SMILES strings stand for the structures. Like-named read-outs stand apart in the source and are kept apart here.

For assay [1], the system named is TGR-1 cells.
Description: To induce DSBs in DNA and recombinational repair, cell cultures were exposed to a ^137CS irradiator at doses of 900 rad and then allowed to recover for various time spans. In another experiment, cells were treated with 10 μM 5-aza-dC for 24 hrs.
Immunofluorescent Staining. Harvested cells were washed and resuspended in PBS. Cell density was adjusted to ˜10^5 cells/ml. 0.5 ml aliquots of this cell suspension were centrifuged onto clean glass slides at 800 rpm for 4 min, using a Shandon Cytospin. Immediately after cytocentrifugation, the preparations were fixed in absolute methanol for 30 min at −20° C. and then rinsed in ice-cold acetone for a few seconds. Following three washes with PBS, the preparations were incubated at 37° C. with rabbit anti-HsRad51 antiserum, diluted 1:100 with PBS, in a humidified incubator for 30 min. For some experiments, the slides were simultaneously labeled with rat anti-HsRad52 antiserum or mouse monoclonal antibody. The slides were then washed in PBS another three times for 10 min each and incubated for 30 min with fluorescein-isothiocyanate (FITC)-conjugated anti-rabbit IaG, appropriately diluted with PBS. Rad52, Gadd45, p53, and RNAPII were detected with rhodamine, conjugated anti-rat IgG or anti-mouse IgG+IgM. After three further washes with PBS, the preparations were counterstained with 1 μg/ml 4,6-diamidino-2-phenylindole (DAPI) in 2×SSC for 5 min. The slides were mounted in 90% glycerol, 0.1 M Tris-HCl, pH 8.0, and 2.3% 1,4-diazobicyclo-2,2,2-octane (DABCO).
(§3) Fluorescence In Situ End Labeling (FISEL). FISEL detects cell death (apoptosis) in situ by quantitating DNA strand breaks in individual nuclei. It uses terminal transferase (TdT) to label the 3′-ends in fragmented genomic DNA with biotinylated nucleotide. 100 μl of reaction mix contain 1 μl (25 Units) TdT (Boehringer Mannheim), 20 μl 5×TdT buffer (supplied with the enyzme), 1 μl 0.5 mM biotin-ll-dUTP, 3 μl 0.5 mM dTTP, and 75 μl ddH2O. Cytological preparations are incubated at 37° C. for 1 hr with this reaction mix. Washing the slides for 3×5 min in PBS is sufficient to terminate the reaction. The incorporated biotin-dUTP is detected with rhodarnine-conjugated avidin.
Digital Imaging Microscopy. Images were taken with a Zeiss epifluorescence microscope equipped with a thermoelectronically cooled charge coupled device (CCD) camera (Photometries CH250), which was controlled by an Apple Macintosh computer. Gray scale source images were captured separately with filter sets for FITC, rhodamine, and DAPI. Gray scale images were pseudocolored and merged using ONCOR Image and ADOBE Photoshop software.
Assay [2] deals with TGR-1 cells. Description: Immunofluorescent staining of Rad51 foci in nuclei and micronuclei of TGR-1 cells. The note with it: TGR-1 cultures treated with etoposide, FIG. 5D. Format: cell-based, rat. The source says: (§1) Immunofluorescent Staining.
(§2) Digital Imaging Microscopy.

Assay [3] deals with TGR-1 cells. Nature of the assay: Apoptosis by fluorescence in situ end labeling (FISEL) in TGR-1 cells. Conditions: After 36 hrs etoposide in culture medium. Format: cell-based, rat.
Description: Treatment with etoposide (Sedivy), a drug that inhibits DNA topoisomerase II, is a classic system for inducing apoptosis in cells (Mizumoto, et al., (1994). Mol. Pharmac. 46, 890-895).
as §3
Assay [4] relates to LNL8 fibroblasts. Description: Immunofluorescent staining of Rad51 foci in nuclei and micronuclei of LNL8 fibroblasts. Format: cell-based. The note with it: human LNL8 fibroblast cultures, non-lethal doses of 5-aza-dC.
Text: as §1, §2

The mark [5] stands for this setting: 24 hrs 0.1 μg/ml colcemid, 1 day of recovery.
Setting [6] is: 24 hrs 0.1 μg/ml colcemid, 2 days of recovery.
[7] abbreviates: 24 hrs 0.1 μg/ml colcemid, 3 days of recovery.
[8] abbreviates: 24 hrs 0.1 μg/ml colcemid, no recovery.

In the case of `CN[C@H]1CCc2cc(OC)c(OC)c(OC)c2-c2ccc(OC)c(=O)cc21` [Colcemid, colcemid], in assay [1] (24 hrs 0.1 μg/ml colcemid), the “colcemid-treated cells arrested at metaphase” value came out at 185. In addition, in assay [1] (setting [5]), the “Percentage of Cells Showing Rad51+/FISEL+” value is recorded as 1%, the “Percentage of Cells Showing Rad51+/FISEL−” value is reported as 31%, the “Percentage of Cells Showing Rad51−/FISEL+” value is on record as 14% and the “Percentage of Cells Showing Rad51−/FISEL−” value is 54%. Also, in assay [1] (setting [6]), the “Percentage of Cells Showing Rad51+/FISEL+” value was found to be 6%, the “Percentage of Cells Showing Rad51+/FISEL−” value is reported as 9%, the “Percentage of Cells Showing Rad51−/FISEL+” value turned out to be 40% and the “Percentage of Cells Showing Rad51−/FISEL−” value is reported as 45%. In addition, in assay [1] (setting [7]), the “Percentage of Cells Showing Rad51+/FISEL+” value worked out at 4%, the “Percentage of Cells Showing Rad51+/FISEL−” value was 7%, the “Percentage of Cells Showing Rad51−/FISEL+” value was 46% and the “Percentage of Cells Showing Rad51−/FISEL−” value is reported as 43%. Further, in assay [1] (setting [8]), the “Percentage of Cells Showing Rad51+/FISEL+” value is 0%, the “Percentage of Cells Showing Rad51+/FISEL−” value came out at 6%, the “Percentage of Cells Showing Rad51−/FISEL+” value came to 9% and the “Percentage of Cells Showing Rad51−/FISEL−” value is 85%. Moreover, the “induced MN containing very brightly fluorescing Rad51 foci” value in assay [1] (colcemid-treated cells recovered 24 hrs in drug-free medium) is listed as “over 30%”.
Consider `COc1cc([C@@H]2c3cc4c(cc3[C@@H](O[C@@H]3O[C@@H]5CO[C@@H](C)O[C@H]5[C@H](O)[C@H]3O)[C@H]3COC(=O)[C@H]23)OCO4)cc(OC)c1O` [etoposide], for which the “content of induced micronuclei (Rad51 protein, fragmented DNA)” value in assay [2] is given as “contain Rad51 protein”. In assay [3], the “cells showing genome fragmentation (FISEL-positive)” value was “half of the cells showed genome fragmentation”.
In the case of `Nc1ncn([C@H]2C[C@H](O)[C@@H](CO)O2)c(=O)n1` [5-aza-dC, 5-azadeoxycytidine], in assay [4], the “cells displaying MN with focally concentrated Rad51 protein” value is recorded as 5-10%.

Source of the values: patent US6391564B1, “Methods and compositions utilizing Rad51” (priority 1997, dated 2002).
